{"source": "patent US9238637B2", "about": "“Stable polymorphic forms of compound as hypoxia mimetics, and uses thereof” (BEIJING BETTA PHARMACEUTICALS CO., LTD, priority 2011, dated 2016)", "key": {"[1]": {"test_system": "adenine-induced renal anemic rats", "experiment": "Efficacy studies in adenine-induced renal anemic rats", "format": "in vivo, Wistar rats", "method": "Six-week-old male Wistar rats were divided to the control group and treatment groups. After given the standard chow for 10 days, the control group continued on the standard chow while the treatment groups were given the standard chow with the addition of 0.75% adenine for 30 days when the treatment groups developed anemia. All the groups were then switched back to the standard chow, and the treatment groups were dosed orally with vehicle or a suspension of one crystal form of the compound in 0.5% CMC-Na at 20, 40 or 80 mg/kg once a day for 4 weeks. Blood samples were obtained from the orbital venous plexus on days 0, 5, 12, 19 and 27. An Automated Hematology Analyzer MEK-6318K was used to determine hematological parameters such as erythrocyte counts (RBC), hemoglobin concentration (HGB), hematocrit value (HCT)."}, "[2]": {"experiment": "Stability determination of crystal forms (slurry in ethyl acetate, XRPD)", "format": "physicochemical", "details": "72 hrs", "method": "(§1) 100 mg of the compound of Formula I prepared from the method disclosed in Example 1 above (mixed crystal forms) was added into 2 mL of Ethyl Acetate and stirred at room temperature for 72 hrs. After centrifugation and drying, the resulted crystal form was determined by XRPD to be purely the Crystalline Form III.\nas §1, with “50 mg” for “100 mg”, “into 1” for “into 2”, “at 50° C.” for “at room temperature”"}, "[3]": {"test_system": "Erythropoietin (EPO)", "experiment": "Determination of erythropoietin (EPO) induction in normal mice", "format": "in vivo", "details": "male C57BL/6 mice, oral suspension in 0.5% CMC, 60 mg/kg, serum 6 hours after dosing", "method": "Eight-week-old male C57BL/6 mice were dosed orally with a suspension of one crystal form of the compound in 0.5% CMC at 20, 60 and 100 mg/kg. Blood samples were obtained from the orbital venous plexus 6 hours after dosing and serum was collected (see also, Robinson A, et al., Gastroenterology. 2008, 134:145-55; Hsieh M M, et al., Blood. 2007, 110:2140-7). Samples were analyzed for EPO by electrochemiluminescence-based immunoassay (MSD) according to manufacturer's instructions. The inducted EPO when the Crystalline Form III in this invention was used in suspension was determined to be above 35 folds over that of the vehicle group without induction at the dosage of 60 mg/kg."}, "[4]": {"target": "T1, full length PHD2 (Homo sapiens, UniProt Q9GZT9)", "T1 construct": "containing 600 nM full length PHD2", "T1 sequence (Q9GZT9 whole entry, species assumed)": "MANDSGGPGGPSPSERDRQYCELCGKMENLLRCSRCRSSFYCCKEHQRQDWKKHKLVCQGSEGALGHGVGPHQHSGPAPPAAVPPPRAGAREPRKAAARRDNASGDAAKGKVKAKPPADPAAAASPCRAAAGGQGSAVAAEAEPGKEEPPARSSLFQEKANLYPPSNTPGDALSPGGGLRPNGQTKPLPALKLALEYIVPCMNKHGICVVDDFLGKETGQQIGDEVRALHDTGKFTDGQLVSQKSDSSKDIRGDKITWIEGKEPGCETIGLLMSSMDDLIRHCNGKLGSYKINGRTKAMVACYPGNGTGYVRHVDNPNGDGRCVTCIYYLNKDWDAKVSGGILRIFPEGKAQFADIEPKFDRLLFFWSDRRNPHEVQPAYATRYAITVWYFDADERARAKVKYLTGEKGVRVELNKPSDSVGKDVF", "experiment": "Assay of HIF-PHD2 enzyme activity (homogeneous TR-FRET)", "format": "biochemical", "details": "600 nM full length PHD2, 0.2 μM 2-oxoglutarate, 0.5 μM HIF-1α peptide, 2 hrs room temperature", "method": "HIF-PHD2 activity was measured using homogeneous TR-FRET technology (see also, US2008/004817; Dao J H et al., Anal Biochem. 2009, 384:213-23). To each well of a ½Area 96-well plate was added 2 μL DMSO solution of test compound and 40 μL of assay buffer (50 mM Tris PH7.4/0.01% Tween-20/0.1 mg/ml BSA/1 mM Sodium ascorbate/20 μg/ml Catalase/10 μM FeSO4) containing 600 nM full length PHD2. After a 30 min preincubation at room temperature, the enzymatic reactions were initiated by the addition of 8 μL of substrates (final concentrations of 0.2 μM 2-oxoglutarate and 0.5 μM HIF-1α peptide biotinyl-DLDLEMLAPYIPMDDDFQL). After 2 hrs. at room temperature, the reactions were terminated and signals were developed by the addition of a 50 μL quench/detection mix to a final concentration of 1 mM ortho-phenanthroline, 0.1 mM EDTA, 0.5 nM anti-(His)6LANCE reagent, 100 nM AF647-labeled Streptavidin, and 30 nM (His)6-VHL-elonginB-elonginC complex. The ratio of time resolved fluorescence signals at 665 and 620 nm was determined, and percent inhibition was calculated relative to an uninhibited control sample run in parallel."}}, "note": "pIC50: −log10 of the molar value.", "data": [{"smiles": "Cc1cccc(-c2cccc3c(O)c(C(=O)NCC(=O)O)c(=O)oc23)c1", "note": "[Crystalline Form III, N-[(4-hydroxy-2-oxo-8-(3-methyl-phenyl)-2H-3-coloralkenyl)carbonyl]glycine]", "values": [{"measurement": "HGB", "setting": "[1]; 20 mg/kg oral once a day, Day 0", "value": 88.0, "unit": "g/L"}, {"measurement": "HGB", "setting": "[1]; 20 mg/kg oral once a day, Day 5", "value": 60.7, "unit": "g/L"}, {"measurement": "HGB", "setting": "[1]; 20 mg/kg oral once a day, Day 12", "value": 64.3, "unit": "g/L"}, {"measurement": "HGB", "setting": "[1]; 20 mg/kg oral once a day, Day 19", "value": 73.3, "unit": "g/L"}, {"measurement": "HGB", "setting": "[1]; 20 mg/kg oral once a day, Day 27", "value": 90.7, "unit": "g/L"}, {"measurement": "HGB", "setting": "[1]; 40 mg/kg oral once a day, Day 0", "value": 87.4, "unit": "g/L"}, {"measurement": "HGB", "setting": "[1]; 40 mg/kg oral once a day, Day 5", "value": 69.4, "unit": "g/L"}, {"measurement": "HGB", "setting": "[1]; 40 mg/kg oral once a day, Day 12", "value": 87.2, "unit": "g/L"}, {"measurement": "HGB", "setting": "[1]; 40 mg/kg oral once a day, Day 19", "value": 89.7, "unit": "g/L"}, {"measurement": "HGB", "setting": "[1]; 40 mg/kg oral once a day, Day 27", "value": 103.6, "unit": "g/L"}, {"measurement": "HGB", "setting": "[1]; 80 mg/kg oral once a day, Day 0", "value": 86.8, "unit": "g/L"}, {"measurement": "HGB", "setting": "[1]; 80 mg/kg oral once a day, Day 5", "value": 76.7, "unit": "g/L"}, {"measurement": "HGB", "setting": "[1]; 80 mg/kg oral once a day, Day 12", "value": 111.0, "unit": "g/L"}, {"measurement": "HGB", "setting": "[1]; 80 mg/kg oral once a day, Day 19", "value": 122.0, "unit": "g/L"}, {"measurement": "HGB", "setting": "[1]; 80 mg/kg oral once a day, Day 27", "value": 139.0, "unit": "g/L"}, {"measurement": "effect on HGB levels (in words)", "setting": "[1]; 20, 40 or 80 mg/kg oral once a day for 4 weeks", "value": "improved the HGB levels in the animals and corrected them toward normal"}, {"measurement": "thermodynamic stability of crystal form", "setting": "[2]; 50° C.", "value": "thermodynamically the more stable crystal form"}, {"measurement": "thermodynamic stability of crystal form", "setting": "[2]; room temperature", "value": "thermodynamically the more stable crystal form"}, {"measurement": "inducted EPO over that of the vehicle group", "setting": "[3]", "value": "above 35 folds"}]}, {"smiles": "Cc1cccc(-c2cccc3c(O)c(C(=O)NCC(=O)O)c(=O)oc23)c1", "note": "[compound of Formula I, N-[(4-hydroxy-2-oxo-8-(3-methyl-phenyl)-2H-3-coloralkenyl)carbonyl]glycine]", "values": [{"measurement": "pIC50", "setting": "[4]", "value": "~6.82"}]}]}
